Test results: US6221871A, “Certain aminomethyl biphenyl, aminomethyl phenyl pyridine and aminomethyl phenyl pyrimidine derivatives; novel dopamine receptor subtype selective ligands” (priority 1999, dated 2001)
Where a name gives a salt, the structure may show the parent alone. Read-outs that look alike come from different tables or passages of the source.

How the values were obtained:
D2 receptor = D2 receptor (Rattus norvegicus, UniProt P61169); assay: biochemical; format: binding
[1] = biological target: T1, human dopamine D4 receptor subtype (Homo sapiens, UniProt P21917); assay: D4 receptor binding, [3H]YM-09151-2 displacement
T1 construct: expressed in transfected cells
T1 sequence (P21917 1-419): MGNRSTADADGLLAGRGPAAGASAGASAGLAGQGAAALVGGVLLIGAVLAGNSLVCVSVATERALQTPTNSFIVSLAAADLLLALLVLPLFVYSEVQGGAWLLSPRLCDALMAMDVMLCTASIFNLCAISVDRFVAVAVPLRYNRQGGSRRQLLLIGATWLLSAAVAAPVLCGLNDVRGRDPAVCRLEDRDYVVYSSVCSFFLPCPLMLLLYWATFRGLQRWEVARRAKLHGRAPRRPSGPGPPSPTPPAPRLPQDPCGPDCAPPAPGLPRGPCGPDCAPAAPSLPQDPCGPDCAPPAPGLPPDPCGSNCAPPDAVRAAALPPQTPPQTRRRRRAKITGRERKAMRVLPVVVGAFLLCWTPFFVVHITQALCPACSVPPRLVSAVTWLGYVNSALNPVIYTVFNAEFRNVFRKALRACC
Experimental: Assay for D4 receptor binding activity
Clonal cell lines expressing the human dopamine D4 receptor subtype were harvested in PBS and the cells centrifuged and the pellets stored at -80° C. until used in the binding assay. The pellets were resuspended and the cells lysed at 4° C. in 50 mM Tris pH 7.4 buffer containing 120 mM NaCl, 1 mM EDTA and 5 mM MgCl2. The homogenate is centrifuged at 48000× g for 10 minutes at 4° C. The resulting pellet is resuspended in fresh buffer and centrifuged again. After resuspension of the pellet in fresh buffer a […] aliquot is removed for protein determination. The remaining homogenate is centrifuged as above, the supernatant removed and the pellet stored at 4° C. until needed; at which time it is resuspended to a final concentration of […] with 50 mM Tris buffer (pH 7.4) and 120 mM NaCl just prior to use. Incubations were carried out for 60 minutes at 25° C. in the presence of 0.1 nM [^3 H] YM-09151-2. The incubation was terminated by rapid filtration through Whatman GF/C filters and rinsed with 2×4 ml washes of chiled 50 mM Tris (pH 7.4) and 120 mM NaCl. Non-specific binding was determined with 1 mM spiperone and radioactivity determined by counting in an LKB beta counter. Binding parameters were determined by non-linear least squares regression analysis, from which the inhibition constant Ki could be calculated for each test compound. The binding characteristics of some examples of this patent are shown in Table 2 for the dopamine D4 binding assay.

D3 receptor = D3 receptor binding, [3H]raclopride displacement; conditions: 0.5 nM 3H-raclopride; recombinantly produced D3 receptors, BHK 293 cells
Experimental: Assay for D2 and D3 receptor binding activity
Striatial tissue is dissected from adult male Sprague Dawley rats or BHK 293 cells are harvested containing recombinantly produced D2 or D3 receptors. The sample is homogenized in 100 volumes (w/vol) of 0.05 M Tris HCl buffer at 4° C. and pH 7.4. The sample is then centrifuged at 30,000× g and resuspended and rehomogenized. The sample is then centrifuged as described and the final tissue sample is frozen until use. The tissue is resuspended 1:20 (wt/vol) in 0.05 M Tris HCl buffer containing 100 mM NaCl.
Incubations are carried out at 48° C. and contain 0.5 ml of tissue sample, 0.5 nM ^3 H-raclopride and the compound of interest in a total incubation of 1.0 ml.

[2] = 0.5 nM 3H-raclopride, rat striatal homogenates (Table 1), read-out: D2 binding IC50
[3] = 0.1 nM [3H]YM-09151-2, 60 min, 25° C., clonal cell lines expressing human D4 (Table 2), read-out: Ki

Chain of D2 receptor (P61169 whole entry): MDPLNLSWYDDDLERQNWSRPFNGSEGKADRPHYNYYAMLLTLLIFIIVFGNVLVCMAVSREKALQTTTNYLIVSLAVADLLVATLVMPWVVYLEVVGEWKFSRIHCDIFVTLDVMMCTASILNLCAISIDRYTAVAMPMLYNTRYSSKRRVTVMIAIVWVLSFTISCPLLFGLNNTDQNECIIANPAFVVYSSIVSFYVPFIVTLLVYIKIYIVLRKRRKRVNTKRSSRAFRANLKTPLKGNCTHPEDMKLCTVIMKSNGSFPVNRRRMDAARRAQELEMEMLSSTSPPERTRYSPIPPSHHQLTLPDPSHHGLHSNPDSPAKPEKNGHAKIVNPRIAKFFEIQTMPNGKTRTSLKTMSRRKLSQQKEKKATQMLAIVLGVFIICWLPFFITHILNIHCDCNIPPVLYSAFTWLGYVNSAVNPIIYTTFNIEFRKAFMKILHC

## c1ccc(CC2CCN(Cc3ccnc(-c4ccccc4)c3)CC2)cc1 [Compound 9, 2-phenyl-4-[(4-benzyl-piperidin-1-yl)methyl]-pyridine dihydrochloride]
D2 receptor; [2]
  IC50: 290 nM
[1]; [3]
  Ki: 56 nM

## c1ccc(CC2CCN(Cc3ccnc(-c4ccccc4)n3)CC2)cc1 [Compound 11, 2-phenyl-4-[(4-benzyl-piperidin-1-yl)methyl]-pyrimidine dihydrochloride]
D3 receptor
  IC50: 1610 nM
[1]; [3]
  Ki: 600 nM

## c1ccc(CC2CCN(Cc3cccc(-c4ccccc4)n3)CC2)cc1 [Compound 10, 2-Phenyl-6-[(4benzyl-piperidin-1-yl)methyl]-pyridine]
D3 receptor
  IC50: 1140 nM
[1]; [3]
  Ki: 769 nM

## c1ccc(-c2cccc(CN3CCC(c4ccccc4)CC3)c2)cc1 [Compound 4, 3-[(4phenyl-piperidin-1-yl)methyl]biphenyl hydrochloride]
D2 receptor; [2]
  IC50: 5 nM
D3 receptor
  IC50: 61 nM
[1]; [3]
  Ki: 28 nM

## CC(c1cccc(-c2ccccc2)c1)N(C)Cc1ccccc1 (centres unmarked) [Compound 6, N-(1-(3-biphenyl)ethyl-N-methylbenzylamine hydrochloride]
D3 receptor
  IC50: 6120 nM
[1]; [3]
  Ki: > 75 nM

## COc1ccccc1N1CCN(C(C)c2cccc(-c3ccccc3)c2)CC1 (centres unmarked) [Compound 7, 1-(2-methoxyphenyl)-4-(1-(3-biphenyl)ethyl)piperazine dihydrochloride]
D3 receptor
  IC50: 342 nM
[1]; [3]
  Ki: > 75 nM

## COc1ccc(CN2CCN(c3ncccn3)CC2)cc1-c1ccccc1 [Compound 2, 2-phenyl-4-[(4-(2-pyrimidinyl)-piperazinyl)methyl]anisole dihydrochloride]
[1]; [3]
  Ki: 243 nM

## C1=C(c2ccccc2)CCN(Cc2cccc(-c3ccccc3)c2)C1 [Compound 3, 3-[(4-1,2,3,6-tetrahydropyridin-1-yl)methyl]biphenyl hydrochloride]
D2 receptor
  IC50: 12 nM
D3 receptor
  IC50: 12 nM
[1]
  Ki: 18 nM

## Cc1cc(-c2ccccc2)ccc1CN1CCC(Cc2ccccc2)CC1 [Compound 5, 3-phenyl-6-[(4-benzyl-piperidin-1-yl)methyl]toluenehydrochloride]
D3 receptor
  IC50: 2490 nM
[1]; [3]
  Ki: 286 nM

## c1ccc(-c2cc(CN3CCN(c4ncccn4)CC3)cc(-c3ccccc3)c2)cc1 [Compound 8, 1-(2-pyrimidyl)-4-((3,5-diphenylphenyl)methyl)piperazine dihydrochloride]
D2 receptor; [2]
  IC50: 1940 nM
[1]; [3]
  Ki: 1050 nM

## COc1ccc(-c2ccccc2)cc1CN1CCN(c2ncccn2)CC1 [Compound 1, 4phenyl-2-[(4-(2-pyrimidinyl)-piperazinyl)methyl]-anisole dihydrochloride]
D2 receptor; [2]
  IC50: 175 nM
[1]; [3]
  Ki: 32 nM
